Key:
HSP70 [1] = experiment: HSP70 protein in rat brain lysates by Western blotting after oral dosing; type: in vivo
Experimental: The compounds tabulated below or vehicle controls were orally dosed at 12 mg/kg to Sprague-Dawley rats. Rat brain tissues were extracted in various time points after the oral dosing. Lysates were prepared from the harvested brain tissues. Western blotting analysis was done for the same protein amounts of these lysates, and western signals of HSP70 were detected by chemiluminescence and quantified in parallel with comparisons of those detected at time 0 hr. Western signals at time 0 hr were normalized as 100.

GAPDH = experiment: Expression of heat shock proteins in vivo, rat brain mRNA by qPCR (control gene); details: time 0 = 100%
Experimental: (§1) GGA trans isomer in 5% Gum Arabic as an aqueous suspension formulation were orally dosed to Sprague-Dawley rats at 12 mg/Kg body weight. Rat brain tissues were extracted in various time points after the oral dosing. mRNA were prepared from those brain tissues extracted, and cDNA were produced. qPCR analysis was done by using primers specifically designed to detect mRNA of HSPs. GAPDH gene was used as a control to compare quantities of HSP cDNAs amplified by qPCR analysis. Amounts of cDNA quantified at time 0 are normalized as 100%, and relative amounts of cDNA compared with those at various time points are depicted in the tables below: […]

HSP27 = experiment: Expression of heat shock proteins in vivo, rat brain mRNA by qPCR; details: time 0 = 100%
Experimental: as §1

HSP60 = experiment: as above; details: time 0 = 100%
Experimental: as §1

HSP90 = experiment: as above; details: time 0 = 100%
Experimental: as §1

HSP70 [2] = experiment: as above; details: time 0 = 100%
Experimental: as §1

[3] = 12 hr after oral 12 mg/Kg in 5% Gum Arabic
[4] = 24 hr after oral 12 mg/Kg in 5% Gum Arabic
[5] = 48 hr after oral 12 mg/Kg in 5% Gum Arabic
[6] = 96 hr after oral 12 mg/Kg in 5% Gum Arabic

CC(=O)CC/C=C(\C)CC/C=C(\C)CC/C=C(\C)CCC=C(C)C (single isomer, unassigned) [GGA trans isomer, 5E,9E,13E-Geranylgeranyl acetone]
Western signal of HSP70 in brain (HSP70 [1]; 12 hr after oral 12 mg/kg, time 0 hr = 100, Vehicle 102%): 115% | Western signal of HSP70 in brain (HSP70 [1]; 48 hr after oral 12 mg/kg, time 0 hr = 100, Vehicle 105%): 115% | Western signal of HSP70 in brain (HSP70 [1]; 96 hr after oral 12 mg/kg, time 0 hr = 100, Vehicle 99%): 114% | GAPDH relative amount of cDNA (control gene) (GAPDH; [3]): 96.93% | GAPDH relative amount of cDNA (control gene) (GAPDH; [4]): 99.24% | GAPDH relative amount of cDNA (control gene) (GAPDH; [5]): 100% | GAPDH relative amount of cDNA (control gene) (GAPDH; [6]): 102.31% | HSP27 relative amount of cDNA (HSP27; [3]): 115.38% | HSP27 relative amount of cDNA (HSP27; [4]): 114.61% | HSP27 relative amount of cDNA (HSP27; [5]): 116.15% | HSP27 relative amount of cDNA (HSP27; [6]): 103.84% | HSP60 relative amount of cDNA (HSP60; [3]): 113.84% | HSP60 relative amount of cDNA (HSP60; [4]): 130.00% | HSP60 relative amount of cDNA (HSP60; [5]): 116.92% | HSP60 relative amount of cDNA (HSP60; [6]): 103.85% | HSP90 relative amount of cDNA (HSP90; [3]): 107.69% | HSP90 relative amount of cDNA (HSP90; [4]): 106.92% | HSP90 relative amount of cDNA (HSP90; [5]): 105.38% | HSP90 relative amount of cDNA (HSP90; [6]): 100.77% | HSP70 relative amount of cDNA (HSP70 [2]; [3]): 118.46% | HSP70 relative amount of cDNA (HSP70 [2]; [4]): 107.69% | HSP70 relative amount of cDNA (HSP70 [2]; [5]): 106.15% | HSP70 relative amount of cDNA (HSP70 [2]; [6]): 103.85%
